Test [1] deals with Methicilin resistant Staphylococcus aureus 32 (MRSA 32). The test is described as follows: Minimum Inhibitory Concentration (MIC) determination, agar dilution. Type of test: cell-based. The settings on record: Mueller Hinton agar, 24 hrs at 35° C.
Test [2] concerns Methicilin resistant Staphylococcus epidermidis 118 (MRSE 118). Described as above. Type of test: cell-based. As to conditions: Mueller Hinton agar, 24 hrs at 35° C.
Test [3] deals with Vancomycin resistant enterococci 303 (VRE 303). The test is described as above. As to conditions: Enterococcus, Mueller Hinton agar, 24 hrs at 35° C. The format is cell-based.
Test [4] has as its system Streptococcus pneumoniae 49619 (SPN 49619). The test is described as follows: Minimum Inhibitory Concentration (MIC) determination, agar with 5% sheep blood. The format is cell-based. As to conditions: Mueller Hinton agar containing 5% sheep blood.
In test [5] the test system is Streptococcus pyogenes 801 (SPY 801). The description is as above. Type of test: cell-based. The settings on record: Mueller Hinton agar containing 5% sheep blood.
Test [6] has as its system methicillin resistant Staphylococcus aureus strain MRSA 32. The test is described as follows: Murine Assay Procedure (in vivo efficacy, MRSA 32 infection). The settings on record: swiss mice infected intraperitoneally with MRSA 32, oral gavage 1 h after infection, repeat dose 3 hrs later, percentage survival on Day 7.

In brackets after ≈: the same amount, converted by molar mass.

For orientation: MIC means the lowest concentration that inhibits growth of the organism. By ED50 is commonly meant the dose at which the effect has come halfway, by size or by number of responders. The low end stands for an effect at a small dose, the high end for a need for a large dose. Regarding `CC(=O)NC[C@H]1CN(c2ccc(N3CCOCC3)c(F)c2)C(=O)O1` [Linezolid, reference compound], the MIC in test [1] was determined as 2 µg/mL (≈ 5.93 µM); in test [2] it was 1 µg/mL (≈ 2.96 µM); in test [3] it was 2 µg/mL (≈ 5.93 µM); in test [4], 2 µg/mL (≈ 5.93 µM); in test [5], 2 µg/mL (≈ 5.93 µM). The molecule also displayed an ED50 in test [6] of 5 mg/kg.

Source of the values: patent US8729269B2, “Substituted piperidino phenyloxazolidinones having antimicrobial activity with improved in vivo efficacy” (Wockhardt Limited, priority 2003, dated 2014).
